The record followed here is PubChem BioAssay AID330 (DTP/NCI, 2004).

For the assay, the system named is P388 leukemia ip, CD2F1 mice, survival T/C. Briefly: NCI In Vivo Anticancer Drug Screen. Data for tumor model P388 Leukemia (intraperitoneal) in CD2F1 (CDF1) mice. Particulars: endpoint: median survival time, higher = longer survival. In outline: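 Mice carrying the transplanted tumor received test compound or vehicle. Survival was recorded in each group, and the value is the treated-group measurement divided by that of the vehicle-treated control group.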

[1] abbreviates: dose: 100.0 mg/kg/injection, schedule: Q01DX001 (ip), vehicle: Klucel (hydroxypropylcellulose) (HPC).
The mark [2] stands for this setting: dose: 200.0 mg/kg/injection, schedule: Q01DX001 (ip), vehicle: Klucel (hydroxypropylcellulose) (HPC).
Where [3] appears, read: dose: 50.0 mg/kg/injection, schedule: Q01DX009 (ip), vehicle: saline.
[4] abbreviates: dose: 60.0 mg/kg/injection, schedule: Q01DX005 (ip), vehicle: Klucel (hydroxypropylcellulose) (HPC).
Where [5] appears, read: dose: 120.0 mg/kg/injection, schedule: Q01DX005 (ip), vehicle: Klucel (hydroxypropylcellulose) (HPC).
Setting [6] is: dose: 240.0 mg/kg/injection, schedule: Q01DX005 (ip), vehicle: Klucel (hydroxypropylcellulose) (HPC).
The mark [7] stands for this setting: dose: 60.0 mg/kg/injection, schedule: Q01DX005 (ip), vehicle: saline with Tween-80.
Setting [8] is: dose: 120.0 mg/kg/injection, schedule: Q01DX005 (ip), vehicle: saline with Tween-80.
[9] abbreviates: dose: 240.0 mg/kg/injection, schedule: Q01DX005 (ip), vehicle: saline with Tween-80.

Where “and” joins values, the source holds several entries; their conditions need not be identical. Equal entries are not always repeated. Inconclusive results and toxic doses are left out.

For the compound `CCN(CC)CCOc1ccc(C2N3Cc4ccccc4CN2c2ccccc23)cc1`, the T/C is 99 % of control under setting [1]; 108 % of control under setting [2]; 99 % of control (dose: 400.0 mg/kg/injection, schedule: Q01DX001 (ip), vehicle: Klucel (hydroxypropylcellulose) (HPC)).
Take `C=CC(=NC(C)(C)C)Nc1ccccc1C(=O)OC`: the T/C is 108 % of control (dose: 12.5 mg/kg/injection, schedule: Q01DX009 (ip), vehicle: saline); 107 % of control (dose: 25.0 mg/kg/injection, schedule: Q01DX009 (ip), vehicle: saline); 101 % of control (dose: 50.0 mg/kg/injection, schedule: Q01DX009 (ip), vehicle: saline with Tween-80); 108 % of control under setting [3].
For `N=c1ccn2c(n1)OC1C(O)C(CO)OC12` (configuration not stated), the T/C is 200 % of control under setting [3]; 156 % of control (dose: 75.0 mg/kg/injection, schedule: Q01DX009 (ip), vehicle: saline); 181 % of control (dose: 100.0 mg/kg/injection, schedule: Q01DX009 (ip), vehicle: saline sonified); 222 % of control (dose: 100.0 mg/kg/injection, schedule: Q01DX009 (ip), vehicle: saline); 175 % of control (dose: 150.0 mg/kg/injection, schedule: Q01DX009 (ip), vehicle: saline); 150 % of control (dose: 160.0 mg/kg/injection, schedule: Q01DX005 (ip), vehicle: saline). Further, the T/C is, setting by setting: (dose: 160.0 mg/kg/injection, schedule: Q01DX005 (iv), vehicle: saline) 161 % of control; (dose: 200.0 mg/kg/injection, schedule: Q01DX009 (ip), vehicle: saline sonified) 168 % of control; (dose: 200.0 mg/kg/injection, schedule: Q01DX009 (ip), vehicle: saline) 272 % of control; (dose: 300.0 mg/kg/injection, schedule: Q01DX009 (ip), vehicle: saline) 200 % of control; (dose: 320.0 mg/kg/injection, schedule: Q01DX005 (ip), vehicle: saline) 170 % of control; (dose: 320.0 mg/kg/injection, schedule: Q01DX005 (iv), vehicle: saline) 184 % of control. Also, the T/C reads like this: (dose: 400.0 mg/kg/injection, schedule: Q01DX009 (ip), vehicle: saline sonified) 181 % of control; (dose: 400.0 mg/kg/injection, schedule: Q01DX009 (ip), vehicle: saline) 272 % of control; (dose: 600.0 mg/kg/injection, schedule: Q01DX009 (ip), vehicle: saline) 91 % of control; (dose: 640.0 mg/kg/injection, schedule: Q01DX005 (ip), vehicle: saline) 203 % of control; (dose: 640.0 mg/kg/injection, schedule: Q01DX005 (iv), vehicle: saline) 194 % of control; (dose: 800.0 mg/kg/injection, schedule: Q01DX009 (ip), vehicle: saline sonified) 181 % of control.
`CC1CCCC(C)N1C(=O)C(Cl)(Cl)Cl` (configuration not stated): the T/C was 100 % of control (dose: 50.0 mg/kg/injection, schedule: Q01DX005 (ip), vehicle: saline with Tween-80); 100 % of control (dose: 100.0 mg/kg/injection, schedule: Q01DX005 (ip), vehicle: saline with Tween-80); 100 % of control (dose: 200.0 mg/kg/injection, schedule: Q01DX005 (ip), vehicle: saline with Tween-80).
On to `C=C(Br)C(=NC(C)(C)C)Nc1cccc(Cl)c1`, for which the T/C (dose: 50.0 mg/kg/injection, schedule: Q01DX005 (ip), vehicle: Klucel (hydroxypropylcellulose) (HPC)) is 102 % of control and the T/C (dose: 100.0 mg/kg/injection, schedule: Q01DX005 (ip), vehicle: Klucel (hydroxypropylcellulose) (HPC)) is 107 % of control.
Consider `CCC(=O)NNc1cccc(Cl)n1`, for which the T/C is 98 % of control (dose: 50.0 mg/kg/injection, schedule: Q01DX001 (ip), vehicle: Klucel (hydroxypropylcellulose) (HPC)); 94 % of control under setting [1]; 108 % of control under setting [2].
Take `OC(Cc1cnc2ccccc2c1)(c1ccccc1)c1ccccc1`: the T/C (dose: 50.0 mg/kg/injection, schedule: Q04DX002 (ip), vehicle: saline with Tween-80) is 111 % of control; the T/C (dose: 100.0 mg/kg/injection, schedule: Q04DX002 (ip), vehicle: saline with Tween-80) is 96 % of control; the T/C (dose: 200.0 mg/kg/injection, schedule: Q04DX002 (ip), vehicle: saline with Tween-80) was 88 % of control.
`Cc1[nH]nc2c(Cc3ccc([N+](=O)[O-])cc3)n[nH]c(=O)c12`: the T/C by setting is: (dose: 100.0 mg/kg/injection, schedule: Q04DX002 (ip), vehicle: Klucel (hydroxypropylcellulose) (HPC)) 92 % of control; (dose: 200.0 mg/kg/injection, schedule: Q04DX002 (ip), vehicle: Klucel (hydroxypropylcellulose) (HPC)) 87 % of control; (dose: 400.0 mg/kg/injection, schedule: Q04DX002 (ip), vehicle: Klucel (hydroxypropylcellulose) (HPC)) 92 % of control.
As for `CCC(=O)N1C(=O)C(C)C23c4cc(OC)c(OC)cc4C(=O)N2CCCN13` (configuration not stated), the T/C is 100 % of control under setting [4], 94 % of control under setting [5] and 90 % of control under setting [6].
Turning to `COC(=O)c1[nH]c(=O)c(C#N)c(C(=O)OC)c1-c1ccc(F)cc1`, the T/C under setting [7] is 100 % of control, the T/C under setting [8] is 92 % of control and the T/C under setting [9] is 95 % of control.
For the compound `CCOC(=O)N1CCNCC1`, the T/C runs as follows: (dose: 100.0 mg/kg/injection, schedule: Q04DX003 (ip), vehicle: saline) 108 % of control; (dose: 200.0 mg/kg/injection, schedule: Q04DX003 (ip), vehicle: saline) 108 % of control.
As for `NC1=C(Br)C(=O)C(N)=C(Br)C1=O`, the T/C was 100 % of control under setting [4], 97 % of control under setting [5] and 105 % of control under setting [6].
In the case of `Clc1ccc([C@H]2N[C@@H]2c2ccccn2)cc1`, the T/C by setting is: under setting [7], 94 % of control; under setting [8], 103 % of control; under setting [9], 94 % of control.
Regarding `CC(C)OC(=O)NN(C(=O)OC(C)C)N(C)C`, the T/C is, setting by setting: under setting [4], 100 % of control; under setting [5], 100 % of control; under setting [6], 103 % of control.
In the case of `COc1nc2[nH]c(C)cc(=O)c2c2ccccc12`, the T/C reads like this: under setting [7], 98 % of control; under setting [8], 98 % of control.
`CCCCCCCCCCCCNc1ccc(Cl)cc1`: the T/C runs as follows: (dose: 50.0 mg/kg/injection, schedule: Q01DX009 (ip), vehicle: Klucel (hydroxypropylcellulose) (HPC)) 117 % of control and 123 % of control; (dose: 100.0 mg/kg/injection, schedule: Q01DX009 (ip), vehicle: Klucel (hydroxypropylcellulose) (HPC)) 103 % of control and 113 % of control; (dose: 200.0 mg/kg/injection, schedule: Q01DX009 (ip), vehicle: Klucel (hydroxypropylcellulose) (HPC)) 117 % of control.
With `O=c1[nH]c2c([N+](=O)[O-])cc(Cl)cc2nc1/C=C(\O)c1ccco1`, the T/C runs as follows: under setting [7], 101 % of control; under setting [8], 89 % of control; under setting [9], 92 % of control.
In the case of `O=CC(O)C(O)C(O)C(O)C(O)C#CC#CC(O)C(O)C(O)C(O)C(O)C=O` (configuration not stated), the T/C is 100 % of control (dose: 50.0 mg/kg/injection, schedule: Q01DX005 (ip), vehicle: saline); 105 % of control (dose: 100.0 mg/kg/injection, schedule: Q01DX005 (ip), vehicle: saline); 92 % of control (dose: 200.0 mg/kg/injection, schedule: Q01DX005 (ip), vehicle: saline).
